Measurements from patent publication US20240041823A1, “USE OF MYCOLACTONE (MLN) AND DERIVATIVES THEREOF FOR TREATMENT OF MICROBIAL INFECTIONS” (priority 2022, published 2024).
Where “and” joins values, the source holds several entries; their conditions need not be identical. Identical values can stand only once. Entries after “also recorded” stand apart in the source; their conditions may differ. Like-named read-outs stand apart in the source and are kept apart here.

Experiments:
SARS-CoV-2 [1] = experiment: Viral inhibition by Spike immunohistochemistry (IHC) assay in A549-ACE2 cells; type: cell-based; details: for 80% Inhibition of SARS-CoV-2: concentration giving 80% inhibition; for IC50: read-out: IC-50, Anti-SARS-CoV-2
SARS-CoV-2 Alpha strain = experiment: microbe, parasite or virus in culture; type: cell-based; details: read-out: efficacy (viral titer reduction)
[2] = test system: SARS-CoV-2 Omicron strain; experiment: microbe, parasite or virus in culture; type: cell-based; details: read-out: efficacy (viral titer reduction)
SARS-CoV-2 Delta strain = experiment: microbe, parasite or virus in culture; type: cell-based; details: read-out: efficacy (viral titer reduction)
[3] = test system: A549, HEK293, and HUH7.1 cell lines
[4] = test system: Human hepatoma cell line Huh7.1; details: Huh7.1, maximum concentration tested 1.34 μM
[5] = test system: Human alveolar cell line A549; details: A549, maximum concentration tested 1.34 μM
SARS-CoV-2 [6] = type: cell-based
[7] = intradermal injection; cited from earlier work
[8] = test system: immortalized Human fetal renal cell line HEK293; details: HEK293, maximum concentration tested 1.34 μM
[9] = Severe acute respiratory syndrome coronavirus 2, plaque assay

COc1cccc2[nH]c(C(=O)N[C@@H](CC(C)C)C(=O)N[C@@H](C[C@@H]3CCNC3=O)C(=O)CO)cc12 [PF-00835231, reference compound]
80% Inhibition of SARS-CoV-2 (SARS-CoV-2 [1]): 0.68 µM | 80% Inhibition of SARS-CoV-2 (SARS-CoV-2 [1]; listed as PF-00835231 (Pfizer)): 0.68 ± 0.023 µM | IC50 (SARS-CoV-2 [1]): 230 ± 30 nM

CCC(CC)COC(=O)[C@H](C)N[P@](=O)(OC[C@H]1O[C@@](C#N)(c2ccc3c(N)ncnn23)[C@H](O)[C@@H]1O)Oc1ccccc1 [Remdesivir, reference compound]
IC50 (SARS-CoV-2 Alpha strain; [9]): 248 nM | IC50 [2, 9]: 125 nM | IC50 (SARS-CoV-2 Delta strain; [9]): 139 nM

mycolactone [MLN]
cytotoxicity IC50 breakpoint ratio versus anti-SARS-CoV-2 activity ([3]; 1.34 μM maximum concentration versus average IC50s): more than 65 × | cytotoxicity against human cell lines ([3]; in vitro): not cytotoxic | Cytotoxicity [4]: 36.25±5.6% | IC50 (SARS-CoV-2 Alpha strain; plaque assay): 20 nM | Cytotoxicity [5]: 17.12±9.1% | blocking of virus entry (SARS-CoV-2 [6]): complete blocking activity; also recorded: completely blocks; also recorded: complete prevention | blocking of virus spread (SARS-CoV-2 [6]): complete blocking activity; also recorded: completely blocks; also recorded: complete prevention | half-life in the periphery blood circulation [7]: short | IC50 ([2]; plaque assay): 7 nM | IC50 (SARS-CoV-2 Delta strain; plaque assay): 15 nM | IC50 (SARS-CoV-2 [1]; A549-ACE2 cells, Spike IHC): 20 ± 6 nM | inhibition (SARS-CoV-2 [1]; at 20 nM): 90% | average inhibition (SARS-CoV-2 [1]; at 30nM, IHC assay in triplicate): 84% | inhibition (SARS-CoV-2 [1]; at 42 nM): 100% | 80% Inhibition of SARS-CoV-2 (SARS-CoV-2 [1]): 0.03 µM and 0.03 ± 0.005 µM | viral inhibition against SARS-CoV-2 (SARS-CoV-2 [1]; up to 60nM, IHC assay in triplicate): 100% | Cytotoxicity [8]: 40.30±3.6%
